Laboratory results as given in patent US3949075A, “Anti-microbial compounds of 2', 4' substituted anilides of substituted nitrosalicylic acid for quadruped animals” (Ferro Corporation, priority 1974, dated 1976).
Values after ≈ are worked out from the molar mass of the structure shown. Like-named read-outs stand apart in the source and are kept apart here.

Tests used:
Haemonchus contortus = assay: Percent of Haemonchus destroyed or expelled in infected sheep (egg count after treatment); assay type: in vivo, Haemonchus contortus (in sheep); conditions: sheep
Protocol: Two groups of sheep were used in the tests. One group was used as a non-medicated control, while the other group was treated with the compound under investigation. Helminth-free young lambs were infected with about 10,000 filariform larvae of Haemonchus contortus. In three weeks when the infection became apparent, egg counts were made to determine the density of the worm burden.
The egg count was carried out using the following modified Stoll method. Three grams of sheep feces were taken rectally from each animal and placed in a Stoll flask. To each flask, tap water was added to the top line. The fecal pellets were too hard to break down, the flasks were closed with rubber stoppers and kept in the refrigerator for several hours. The flasks were thoroughly shaken and a 1 ml. sample was drawn from the middle using a wide mouth pipette. This 1 ml. sample was transferred to an 8 ml. plastic tube, to which enough saturated sodium chloride solution was added to reach the rim. The tubes were then centrifuged for 10 minutes at 1500 r.p.m. Then sodium chloride solution was added with a medicine dropper forming a concave miniscus. A cover glass was carefully added and the tubes were kept in a refrigerator for ten to twenty minutes. During that period, the nematode ova flowed upward and adhered to the bottom of the cover glass slip. At the end of the 20-minute period, the cover slip was carefully detached from the miniscus and transferred to a microscopic slide. The ova were then counted under a microscope equipped with 10X ocular and 10X objective lens. Each ovum under the microscope represented 20 ova in the sample.
Animals with sufficiently high egg counts were taken out of the pool and housed in experimental pens. Since the salicylanilides of the present invention are water insoluble, the compounds were first ground using a mortar and pestle and then were placed in a carboxymethyl cellulose solution. The particles were further micronized ultrasonically. The compound was then administered to two or three animals by Oesophageal gavage. Control, untreated animals, received only the carboxymethyl cellulose solution in a similar manner. On the sixth and seventh day after treatment, fecal pellets were taken from the rectum of the control as well as the treated animals and egg counts were made.
(§1) The results of tests on sheep in a manner described, supra, using compounds of the present invention are given in Table 1, Examples 5 through 13. The numbers in the column headed "Haemonchus (15 mg/kg)" refer to the percent of parasites destroyed or expelled when the indicated compound was introduced into the rumen of sheep at a dosage of 15 milligrams per kilogram of body weight. The values under "Tolerance (mg/kg)" refer to the highest test dosage in the milligrams of anthelmintic per kilogram of body weight at which the sheep developed no toxic symptoms. "Tol." is an abbreviation for "tolerated". The symbols R1 and R2 refer to those of Formula I in these and other following examples.
(§2) The data of the tables were generated using procedures previously described. The compounds tested are disubstituted and, except for Example 50 which is dibromo, are dichloro. Where the position for the substituents is other than 2' and 4', it is indicated. Under the indicated microorganisms, the values given in this and the following tables, should be read as: percentage of microorganism killed/dose in milligrams per kilogram of body weight. Under "Tolerance", the term "Tol." means "tolerated", "Tox." means "toxic", and "Sym." means "symptoms of toxic reaction", all at the dosage value which follows. It will be appreciated that there is no sharp toxicity end point in determining toxicity to living sheep.

Fasciola hepatica = assay: Test for activity against liver flukes, Fasciola hepatica, in infected sheep; assay type: in vivo; conditions: Fasciola hepatica, sheep, Tables VIII-XI, read-out: Fasciola hepatica, percentage of microorganism killed
Protocol: (§3) Test for activity against liver flukes were conducted as follows:
(§4) Eggs of Fasciola hepatica were collected from the bile of donor sheep. The eggs were embryonated and snails were infected (the genus Lymnaea serves as intermediate host) to produce Metacercariae which are the infective forms for sheep. Each sheep was infected with 250 metacercariae intraruminally. When the infection became patent in ca. 80 days, egg counts were carried out to determine the degree of worm burden. The liver was processed to recover F. hepatica in the untreated and treated sheep.
as §2

[1] = Tolerance / toxicity in sheep; assay type: in vivo; conditions: in vivo, Table 1, read-out: Tolerance, highest test dosage at which the sheep developed no toxic symptoms
Protocol: as §1
The importance of the 2',4' substitution on the anilide moiety of Formula I is illustrated by the case of the dichloro substitution as summarized in Table III. […] This has been mentioned briefly hereinabove. As used herein, "toxic" refers to death of sheep resulting from the use of the indicated compound at the indicated dosage.
as §2

[2] = test system: Trichophyton mentagrophytes; assay: Inhibition of fungus on Sabouraud agar; assay type: cell-based; conditions: 120 hours at 25°C., read-out: inhibitory concentration
Protocol: (§5) The following procedure for antibacterial evaluation was used. Test compounds were dissolved in a suitable solvent (typically dimethyl sulfoxide or acetone) and incorporated in a nutrient agar at various concentrations. The plates were then streaked with cultures of the appropriate bacteria. The inoculum contained about 8 × 10^8 organisms per milliliter. After incubation for 48 hours at 37°C., the plates were examined for evidence of growth of the microorganisms. The minimum concentration necessary for complete inhibition of growth was noted.
For testing against the fungus Trichophyton the same procedure was used, except that the test medium was Sabouraud agar, and the plates were cultured for 120 hours at 25°C. before evaluation for evidence of growth. The inoculum added to the culture media contained about 5 × 10^6 spores in a water suspension containing 0.1% peptone.

[3] = test system: liver flukes of the genus Fasciola; assay: Utility against liver flukes of the genus Fasciola in sheep (oral); assay type: in vivo; conditions: 15 mg/kg
Protocol: as §3, §4
The compounds of this invention also have utility against liver flukes.

Escherichia coli = assay: Agar plate minimum inhibitory concentration; assay type: cell-based; conditions: nutrient agar, 48 hours at 37°C., complete inhibition
Protocol: as §5

Haemophilus gallinarum = assay: Agar plate minimum inhibitory concentration; assay type: cell-based; conditions: Avibacterium paragallinarum, nutrient agar, 48 hours at 37°C., complete inhibition
Protocol: as §5

Salmonella choleresuis = assay: Agar plate minimum inhibitory concentration; assay type: cell-based; conditions: 48 h, read-out: Minimum Inhibitory Concentration
Protocol: as §5

Salmonella gallinarum = assay: Agar plate minimum inhibitory concentration; assay type: cell-based; conditions: Salmonella enterica, nutrient agar, 48 hours at 37°C., complete inhibition
Protocol: as §5

Staphylococcus aureaus = assay: Agar plate minimum inhibitory concentration; assay type: cell-based; conditions: 48 h, read-out: Minimum Inhibitory Concentration
Protocol: as §5

Streptococcus foecalis = assay: Agar plate minimum inhibitory concentration; assay type: cell-based; conditions: 48 h, read-out: Minimum Inhibitory Concentration
Protocol: as §5

Alternaria solani = assay: Reducing infestation on tomatoes, early blight; assay type: in vivo, Alternaria solani (on tomatoes)
Phytophthora infestans = assay type: in vivo, Phytophthora infestans (on tomatoes)
[4] = Haemonchus contortus, Table V, read-out: Effectiveness at 15 mg/kg against Haemonchus
[5] = Haemonchus contortus, Tables VIII-XI, read-out: Haemonchus, percentage of microorganism killed

Cc1c([N+](=O)[O-])cc(C(C)(C)C)c(O)c1C(=O)Nc1ccc(Cl)cc1 [Example 7, 3-tert. butyl-4'-chloro-6-methyl-5-nitrosalicylanilide]
inhibition in vivo at 2 mg/kg (Haemonchus contortus; Haemonchus contortus, 2 mg/kg, Tables VIII-XI, read-out: Haemonchus, percentage of microorganism killed): 0% | inhibition in vivo at 5 mg/kg (Haemonchus contortus; Haemonchus contortus, 5 mg/kg, Tables VIII-XI, read-out: Haemonchus, percentage of microorganism killed): 65% | inhibition in vivo at 15 mg/kg (Haemonchus contortus; [4]): 81% | inhibition in vivo at 15 mg/kg (Haemonchus contortus; [5]): 81% | Haemonchus (2 mg/kg), percent of parasites destroyed or expelled (Haemonchus contortus; into rumen, 2 mg/kg, Table 1): 0% | Haemonchus (5 mg/kg), percent of parasites destroyed or expelled (Haemonchus contortus; into rumen, 5 mg/kg, Table 1): 65% | Haemonchus (15 mg/kg), percent of parasites destroyed or expelled (Haemonchus contortus; into rumen, Table 1): 81% | inhibition in vivo at 2 mg/kg (Fasciola hepatica; 2 mg/kg): 0% | inhibition in vivo at 5 mg/kg (Fasciola hepatica): 50% | inhibition in vivo at 15 mg/kg (Fasciola hepatica): 100% | NOAEL [1]: 15 to 50 mg/kg | MIC [2]: 1 µg/mL (≈ 2.76 µM) | effect against liver flukes [3]: efficacious

Cc1c([N+](=O)[O-])cc(C(C)(C)C)c(O)c1C(=O)Nc1ccc(Br)cc1 [Example 8, 4'-bromo-3-tert. butyl-6-methyl-5-nitrosalicylanilide]
inhibition in vivo at 15 mg/kg (Haemonchus contortus; [4]): 61% | inhibition in vivo at 15 mg/kg (Haemonchus contortus; [5]): 61% | Haemonchus (15 mg/kg), percent of parasites destroyed or expelled (Haemonchus contortus; into rumen, Table 1): 61% | inhibition in vivo at 5 mg/kg (Fasciola hepatica): 0% | inhibition in vivo at 15 mg/kg (Fasciola hepatica): 100% | MIC (Escherichia coli): 64 µg/mL (≈ 157 µM) | MIC (Haemophilus gallinarum): 8 µg/mL (≈ 19.6 µM) | MIC (Salmonella choleresuis): 64 µg/mL (≈ 157 µM) | MIC (Salmonella gallinarum): 64 µg/mL (≈ 157 µM) | MIC (Staphylococcus aureaus): 1 µg/mL (≈ 2.46 µM) | MIC (Streptococcus foecalis): 64 µg/mL (≈ 157 µM) | reducing infestation on tomatoes, early blight (Alternaria solani): effective in reducing infestation | reducing infestation on tomatoes, late blight (Phytophthora infestans): effective in reducing infestation
